{"source": "paper PMC11206519", "about": "“Multi-Endpoint Toxicological Assessment of Chrysin Loaded Oil-in-Water Emulsion System in Different Biological Models” (Nanomaterials, 2024)", "key": {"[1]": {"tested_on": "S. typhimurium TA 100", "test": "Ames test, mutagenicity", "format": "cell-based, Salmonella Typhimurium", "conditions": "positive control", "description": "(§1) The S. typhimurium strains TA 98 and TA 100 were used to detect frameshift and base-pair mutations, respectively. […] Then, they were poured onto minimal glucose agar containing a trace amount of histidine, following incubation at 37 °C for 48 h. Then, the revertant colonies were counted and compared with the negative control. If the number of revertant colonies in the tested sample treatment is at least twice that of the negative control (spontaneous revertant colonies), it is considered a mutagen."}, "[2]": {"tested_on": "S. typhimurium TA 98", "test": "Ames test, mutagenicity", "format": "cell-based, Salmonella Typhimurium", "conditions": "+S9; 0.5 µg/plate, positive control", "description": "as §1"}, "[3]": {"tested_on": "D. melanogaster trans-heterozygous mwh+/+flr3 larvae of the ST cross", "test": "SMART wing spot test, anti-mutagenicity, ST cross", "description": "(§2) The somatic mutation and recombination test, or the wing spot test, using D. melanogaster was employed as an in vivo system to assess the mutagenicity and anti-mutagenicity of chrysin-ES. Two different crosses were conducted: (i) a standard cross (ST) and (ii) a high bioactivation cross (HB). The standard cross larvae were obtained from virgin female of flr3/TM3, Ser crossed with males of mwh/mwh, while the HB cross larvae expressing cytochrome P450 enzymes involved in xenobiotic biotransformation were obtained from virgin females of ORR/ORR; flr^3/In (3LR) TM3, ri p^psep l (3)89Aa bx^34e e Bd^s crossed with males of mwh/mwh. The flies were cultured at a constant temperature of 25 ± 1 °C and 60–70% RH at photoperiod 12:12 (light/dark). To evaluate the mutagenicity of chrysin and chrysin-ES, a hundred larva F1 progenies derived from the above crossing were fed with instant Drosophila medium (Formula 4-24®), Carolina, Burlington, NC, USA) containing chrysin or chrysin-ES (20–120 µg/mL). DI was used as a negative control, while 20 mM urethane (URE) was used as a positive control. The larvae were reared on each medium until pupation at 25 °C. After that, forty wings of surviving flies in each group were collected for mutant analysis. The mutant spots on the wings, including small single spots, large single spots, and twin spots, were counted. The statistical significance was calculated as previously described by Frei and Würgler.\n(§3) Furthermore, the anti-mutagenicity of the samples was performed by a similar procedure as mentioned above."}, "[4]": {"tested_on": "D. melanogaster trans-heterozygous mwh+/+flr3 larvae of the HB cross", "test": "SMART wing spot test, anti-mutagenicity, HB cross", "description": "as §2, §3"}, "[5]": {"tested_on": "S. typhimurium TA100", "test": "Ames test, anti-mutagenicity", "conditions": "standard mutagen alone, 0.05 µg/plate, +S9", "description": "(§4) Furthermore, the anti-mutagenicity of the samples was performed by a similar procedure, as mentioned above. […] The percentage inhibition (decrease revertant colony number) was calculated as in the following equation:Anti-mutagenicity (%) = [1 − (b/a)] × 100 • a = revertant colony number induced via standard mutagen (positive control). • b = revertant colony number induced by standard mutagen in the presence of each sample treatment.\n(§5) The percent of inhibition between 0–20%, 21–40%, 41–60%, and higher than 60% indicate negligible, weak, moderate, and strong anti-mutagenicity, respectively."}, "[6]": {"tested_on": "S. typhimurium TA98", "test": "Ames test, anti-mutagenicity", "conditions": "standard mutagen alone, 0.1 µg/plate, +S9", "description": "as §4, §5"}, "[7]": {"tested_on": "D. melanogaster trans-heterozygous mwh+/+flr3 larvae of the ST cross", "test": "SMART wing spot test, mutagenicity, ST cross", "format": "in vivo, Drosophila melanogaster", "conditions": "20 mM, positive control", "protocol": "(§6) The somatic mutation and recombination test, or the wing spot test, using D. melanogaster was employed as an in vivo system to assess the mutagenicity and anti-mutagenicity of chrysin-ES. Two different crosses were conducted: (i) a standard cross (ST) and (ii) a high bioactivation cross (HB) [18]. The standard cross larvae were obtained from virgin female of flr3/TM3, Ser crossed with males of mwh/mwh, while the HB cross larvae expressing cytochrome P450 enzymes involved in xenobiotic biotransformation were obtained from virgin females of ORR/ORR; flr^3/In (3LR) TM3, ri p^psep l (3)89Aa bx^34e e Bd^s crossed with males of mwh/mwh. The flies were cultured at a constant temperature of 25 ± 1 °C and 60–70% RH at photoperiod 12:12 (light/dark). To evaluate the mutagenicity of chrysin and chrysin-ES, a hundred larva F1 progenies derived from the above crossing were fed with instant Drosophila medium (Formula 4-24®), Carolina, Burlington, NC, USA) containing chrysin or chrysin-ES (20–120 µg/mL). DI was used as a negative control, while 20 mM urethane (URE) was used as a positive control. The larvae were reared on each medium until pupation at 25 °C. After that, forty wings of surviving flies in each group were collected for mutant analysis. The mutant spots on the wings, including small single spots, large single spots, and twin spots, were counted."}, "[8]": {"tested_on": "D. melanogaster trans-heterozygous mwh+/+flr3 larvae of the HB cross", "test": "SMART wing spot test, mutagenicity, HB cross", "format": "in vivo, Drosophila melanogaster", "conditions": "20 mM, positive control", "protocol": "as §6"}, "[9]": {"conditions": "NMU alone (sodium nitrite 36 mM: methylurea 10 mM)"}, "[10]": {"conditions": "Nitrite alone (sodium nitrite 36 mM)"}}, "note": "Several values for one entry are separate records, joined by “and”; a condition that tells them apart may be missing. Identical values can stand only once.", "data": [{"smiles": "Nc1ccc2cc3ccccc3cc2c1", "note": "[2-AA, 2-Aminoanthracene, reference compound]", "values": [{"measurement": "Number of Revertant Colonies", "setting": "[1]; +S9, 0.5 µg/plate", "value": "487 ± 29"}, {"measurement": "Number of Revertant Colonies", "setting": "[2]", "value": "459 ± 44"}]}, {"smiles": "NC(=O)C(=Cc1ccc([N+](=O)[O-])o1)c1ccco1", "note": "[AF-2, 2-(2-Furyl)-3-(5-nitro-2-furyl) acrylamide, reference compound]", "values": [{"measurement": "Number of Revertant Colonies", "setting": "[1]; −S9, 0.1 µg/plate", "value": "439 ± 30"}]}, {"smiles": "CCOS(C)(=O)=O", "note": "[EMS, ethyl methanesulfonate, reference compound]", "values": [{"measurement": "Mutant spots per individual (number of spots), Large Single", "setting": "[3]; EMS 5 mM alone", "value": "1.75 (70)"}, {"measurement": "Mutant spots per individual (number of spots), Small Single", "setting": "[3]; EMS 5 mM alone", "value": "5.60 (224)"}, {"measurement": "Mutant spots per individual (number of spots), Total", "setting": "[3]; EMS 5 mM alone", "value": "7.80 (312)"}, {"measurement": "Mutant spots per individual (number of spots), Twin", "setting": "[3]; EMS 5 mM alone", "value": "0.45 (18)"}, {"measurement": "Statistical diagnosis, Large Single", "setting": "[3]; EMS 5 mM alone, vs DI", "value": "+"}, {"measurement": "Statistical diagnosis, Small Single", "setting": "[3]; EMS 5 mM alone, vs DI", "value": "+"}, {"measurement": "Statistical diagnosis, Total", "setting": "[3]; EMS 5 mM alone, vs DI", "value": "+"}, {"measurement": "Statistical diagnosis, Twin", "setting": "[3]; EMS 5 mM alone, vs DI", "value": "+"}, {"measurement": "Mutant spots per individual (number of spots), Large Single", "setting": "[4]; EMS 5 mM alone", "value": "0.40 (16)"}, {"measurement": "Mutant spots per individual (number of spots), Small Single", "setting": "[4]; EMS 5 mM alone", "value": "10.00 (400)"}, {"measurement": "Mutant spots per individual (number of spots), Total", "setting": "[4]; EMS 5 mM alone", "value": "10.40 (416)"}, {"measurement": "Mutant spots per individual (number of spots), Twin", "setting": "[4]; EMS 5 mM alone", "value": "0 (0)"}, {"measurement": "Statistical diagnosis, Large Single", "setting": "[4]; EMS 5 mM alone, vs DI", "value": "+"}, {"measurement": "Statistical diagnosis, Small Single", "setting": "[4]; EMS 5 mM alone, vs DI", "value": "+"}]}, {"smiles": "Cn1c(N)nc2c3cccnc3ccc21", "note": "[IQ, 2-Amino-3-methylimidazo(4,5-f) quinoline, reference compound]", "values": [{"measurement": "Number of Revertant Colonies", "setting": "[5]", "value": "730 ± 39"}]}, {"smiles": "CNC(N)=O", "note": "[Methylurea, methylurea, reference compound]", "values": [{"measurement": "Statistical diagnosis, Small Single", "setting": "[3]; in vivo", "value": "−"}, {"measurement": "Statistical diagnosis, Total", "setting": "[3]; in vivo", "value": "−"}, {"measurement": "Statistical diagnosis, Small Single", "setting": "[4]; in vivo", "value": "−"}]}, {"smiles": "CN(N=O)C(N)=O", "note": "[NMU, N-nitrosomethylurea, reference compound]", "values": [{"measurement": "Mutant spots per individual (number of spots), Large Single", "setting": "[3]; [9]", "value": "0.10 (4)"}, {"measurement": "Mutant spots per individual (number of spots), Small Single", "setting": "[3]; [9]", "value": "1.70 (68)"}, {"measurement": "Mutant spots per individual (number of spots), Total", "setting": "[3]; [9]", "value": "2.00 (80)"}, {"measurement": "Mutant spots per individual (number of spots), Twin", "setting": "[3]; [9]", "value": "0.20 (8)"}, {"measurement": "Statistical diagnosis, Small Single", "setting": "[3]; NMU alone, vs DI", "value": "+"}, {"measurement": "Statistical diagnosis, Total", "setting": "[3]; NMU alone, vs DI", "value": "+"}, {"measurement": "Statistical diagnosis, Twin", "setting": "[3]; NMU alone, vs DI", "value": "+"}, {"measurement": "Mutant spots per individual (number of spots), Large Single", "setting": "[4]; [9]", "value": "0.40 (16)"}, {"measurement": "Mutant spots per individual (number of spots), Small Single", "setting": "[4]; [9]", "value": "1.43 (57)"}, {"measurement": "Mutant spots per individual (number of spots), Total", "setting": "[4]; [9]", "value": "1.93 (77)"}, {"measurement": "Mutant spots per individual (number of spots), Twin", "setting": "[4]; [9]", "value": "0.10 (4)"}, {"measurement": "Statistical diagnosis, Large Single", "setting": "[4]; NMU alone, vs DI", "value": "+"}, {"measurement": "Statistical diagnosis, Small Single", "setting": "[4]; NMU alone, vs DI", "value": "−"}, {"measurement": "Statistical diagnosis, Total", "setting": "[4]; NMU alone, vs DI", "value": "+"}]}, {"smiles": "O=N[O-].[Na+]", "note": "[Nitrite, sodium nitrite, reference compound]", "values": [{"measurement": "Mutant spots per individual (number of spots), Large Single", "setting": "[3]; [10]", "value": "0 (0)"}, {"measurement": "Mutant spots per individual (number of spots), Small Single", "setting": "[3]; [10]", "value": "0.05 (2)"}, {"measurement": "Mutant spots per individual (number of spots), Total", "setting": "[3]; [10]", "value": "0.08 (3)"}, {"measurement": "Mutant spots per individual (number of spots), Twin", "setting": "[3]; [10]", "value": "0.03 (1)"}, {"measurement": "Statistical diagnosis, Small Single", "setting": "[3]; Nitrite alone, vs DI", "value": "−"}, {"measurement": "Statistical diagnosis, Total", "setting": "[3]; Nitrite alone, vs DI", "value": "−"}, {"measurement": "Mutant spots per individual (number of spots), Large Single", "setting": "[4]; [10]", "value": "0.03 (1)"}, {"measurement": "Mutant spots per individual (number of spots), Small Single", "setting": "[4]; [10]", "value": "0.25 (10)"}, {"measurement": "Mutant spots per individual (number of spots), Total", "setting": "[4]; [10]", "value": "0.28 (11)"}, {"measurement": "Mutant spots per individual (number of spots), Twin", "setting": "[4]; [10]", "value": "0 (0)"}, {"measurement": "Statistical diagnosis, Small Single", "setting": "[4]; Nitrite alone, vs DI", "value": "−"}]}, {"smiles": "Cn1c(N)nc2ncc(-c3ccccc3)cc21", "note": "[PhIP, 2-amino-1-methyl-6-phenylimidazo (4,5-b) pyridine, reference compound]", "values": [{"measurement": "Number of Revertant Colonies", "setting": "[6]", "value": "400 ± 11"}]}, {"smiles": "CCOC(N)=O", "note": "[URE, urethane, reference compound]", "values": [{"measurement": "Mutant spots per individual (number of spots), Large Single", "setting": "[7]", "value": "0.08 (3)"}, {"measurement": "Mutant spots per individual (number of spots), Small Single", "setting": "[7]", "value": "3.73 (149)"}, {"measurement": "Mutant spots per individual (number of spots), Total Spots", "setting": "[7]", "value": "3.80 and 3.80 (152)"}, {"measurement": "Mutant spots per individual (number of spots), Twin", "setting": "[7]", "value": "0 (0)"}, {"measurement": "Statistical diagnosis, Large Single", "setting": "[7]; vs DI", "value": "+"}, {"measurement": "Statistical diagnosis, Small Single", "setting": "[7]; vs DI", "value": "+"}, {"measurement": "Statistical diagnosis, Total Spots", "setting": "[7]; vs DI", "value": "+"}, {"measurement": "Mutant spots per individual (number of spots), Large Single", "setting": "[8]", "value": "3.10 (62)"}, {"measurement": "Mutant spots per individual (number of spots), Small Single", "setting": "[8]", "value": "10.10 (202)"}, {"measurement": "Mutant spots per individual (number of spots), Total Spots", "setting": "[8]", "value": "14.50 and 14.50 (290)"}, {"measurement": "Mutant spots per individual (number of spots), Twin", "setting": "[8]", "value": "1.30 (26)"}, {"measurement": "Statistical diagnosis, Large Single", "setting": "[8]; vs DI", "value": "+"}, {"measurement": "Statistical diagnosis, Small Single", "setting": "[8]; vs DI", "value": "+"}, {"measurement": "Statistical diagnosis, Total Spots", "setting": "[8]; vs DI", "value": "+"}, {"measurement": "Statistical diagnosis, Twin", "setting": "[8]; vs DI", "value": "+"}]}]}
